Ends that are not written are not given here.

A short description of data set [1]: Peptide-lipid overlay assay (lipid strips). Conditions: 100 pmol lipid spots, LL-37 0.04 mg/ml, 1 h room temperature, anti-LL-37 HRP antibody, qualitative. Format: binding. The procedure: The lipid affinity of LL-37 was assessed using peptide-lipid overlay assays of commercially available lipid strips blotted with 100 pmol of biologically relevant lipids (Echelon Biosciences, Salt Lake City, UT), following the manufacturer’s instructions. Lipid strips were blocked with 1% fat-free milk in TBS (150 mM NaCl, 50 mM Tris-HCl, pH 7.6) for 1 h at room temperature and then incubated with LL-37 (0.04 mg/ml) dissolved in 10 mM NaHCO3, 100 mM NaCl, 5 mM sodium phosphate, pH 8, plus 1% fat-free milk in TBS for 1 h at room temperature. The lipid strips were first washed with TBS buffer three times, and then incubated overnight at 4 °C in a solution of TBS containing 1% fat free milk and the anti-LL-37 HRP-labelled antibody (Innovagen, Sweden) in a 1:2000 dilution. After being washed three times with TBS, the peptide was detected by chemoluminescence using the super-signal western femto maximum sensitivity substrate kit (Thermo Scientific, Pierce Biotechnology, Inc).

The nature of data set [2]: Oligomerization by size exclusion chromatography (SEC). Format: physicochemical. Here is the method:
The oligomeric state of the peptide in the absence and presence of detergents was characterized on Superdex75 10/300 GL column (GE Healthcare) at peptide concentrations of 0.7 (0.16 mM) or 3.7 mg/ml (0.83 mM) respectively. The column was equilibrated using buffer A containing 100 mM NaCl, 10 mM NaHCO3, 5 mM sodium phosphate, pH 6.8, for the detergent free sample. SEC in the presence of detergents was performed at 0.7 mg/ml (0.16 mM) of LL-37 in buffer A plus the following detergent concentrations: 0.2% LDAO (8.7 mM), 0.05% DDM (0.98 mM), 0.2% DPC (5.6 mM). Peptides were incubated with buffer A and buffer-detergent solutions for 30 minutes before 200 μl samples were loaded onto the column. The flow rate of the column was adjusted to 0.5 ml/min and all runs were performed at room temperature. The peptide retention time was monitored at 215 nm due to the absence of Trp and Tyr residues.
For orientation: In gel filtration, larger molecules generally elute earlier.

Data set [3] can be described thus: Analytical ultracentrifugation (AUC), equilibrium sedimentation. The settings on record: 0.33 mg/ml (0.07 mM) in 50 mM phosphate buffer pH 7.2, 0.04% DDM, 18.000 rpm, 20°C, 230 nm; data not shown. Format: physicochemical. The source says: Supplementa ry mat eria l to the paper:
Structural remodeling and oligomerization of human cathelicidin on membranes […]
by Enea Sancho-V aello, Patrice François, Eve-Julie Bonetti, Hauke Lilie, Sebastian Finger, Fernando Gil-Ortiz, Davi d Gil -Carton, Kornelius Zeth
Peptides, lipids and detergents
All peptides used in our study were chemically synthesized and purchased from Peptide2.0(www.peptide20.com), Proteogenix (www.ProteoGenix.fr) or Genecust (www. gen ecust.com) at purities of higher than 95%. Detergents used in this study are N - o c t yl -β-D-glucoside(Apollo Scientific limited), N-D o d e c yl -β-D-maltoside (Apollo Scientific limited), N-dodecylphosphocholine(Affymetrix) and N-dodec yl-N,N-dimethylamine-N-ox ide(Aff ymetrix ). The lipids 1,2- dioleoyl-sn-gl yc e r o -3- phosphocholine (DOPC), 1,2- dioleoyl-s n gl yc e r o -3- phosphoglycerol(DOPG) and cardiolipin (CL) were purchased from Avanti P olarLipids, Inc. (Alab aster, A L, USA). […]
Centrifugationruns were performed at 18.000 rpm and 20°C; data were collected at a wavelength of 230 nmusi ng a concentration of 0.33 mg/ml (0.07 mM) in 50 mM phosphate buffer, pH 7.2. […] The radial distribution of LL-37 at sedimentation equilibrium in the respective bufferwas linearized according to the Lamm equation 1and the slope dlnc/dr2 with c representingthe peptide concentration at the radial position r was determined experimentally. […]

Another data set deals with E. coli K12 cells. The experiment in a line: Cryo-electron microscopy of E. coli incubated with gold-labelled peptide. The settings on record: E. coli K12, 18 µM (80 µg/ml) labelled peptide, 37 °C, 80 minutes. Format: cell-based. Here is the method: E. coli K12 cells were grown at 37 °C at 200 rpm up to an OD of 0.6, and labeled LL-37 nanogold was added to 1 ml culture to reach a final concentration of 18 µM (80 µg/ml). The cultures were further incubated at 37 °C while shaking at 300 rpm (Eppendorf Thermomixer, Hamburg, Germany). After 80 minutes, 200 μl of the sample were taken and cells were pelleted at 3000*g for 10 min at 4 °C. The cell pellet was resuspended using 15 μl of culture solution in order to concentrate the sample and reach a sufficiently high cell density for the visualization in the microscope.

A short description of data set [4]: Cryo-EM of small unilamellar lipid vesicles incubated with gold-labelled peptide. The settings on record: DOPC:DOPG (3:7) SUVs, peptide:lipid 1:250, 15 minutes. Here is the method: For the labeling of LL-37 with 1.4 nm nanogold particles (Nanoprobes, Inc), 200 µM of the S37C peptide were reduced using 5 mM of Dithiothreitol (DTT) in the presence of 5 mM EDTA and 100 mM sodium phosphate, pH 7, at room temperature for 1 hour while shaking. The excess of DTT was removed using a 3 kD-cutoff ultrafiltration cell (Amicon, Millipore). Nanogold at 6 nmol concentration was incubated with the peptide at room temperature for 2 hours while shaking. To remove the excess of nanogold, the mixture was loaded onto a Superdex 75 10/300 GL column (GE Healthcare) with 150 mM NaCl and 20 mM sodium phosphate, pH 7. The fractions containing the labeled peptide were concentrated using a 3 kD-cutoff (Amicon, Millipore) ultrafiltration device. The DOPC:DOPG (3:7) SUVs (small unilamellar vesicles) were prepared using a mini-extruder (Avanti Polar Lipids, Inc). Their size and homogeneity was checked using dynamic light scattering (DLS). DOPC:DOPG vesicles were treated with nanogold labeled LL-37 (ratio of peptide to lipid 1:250).

For the molecule `CC[C@H](C)[C@H](NC(=O)[C@H](CCCCN)NC(=O)[C@H](CCC(=O)O)NC(=O)[C@H](CCCCN)NC(=O)[C@H](CO)NC(=O)[C@H](CCCCN)NC(=O)[C@H](CCCNC(=N)N)NC(=O)[C@H](Cc1ccccc1)NC(=O)[C@H](Cc1ccccc1)NC(=O)[C@H](CC(=O)O)NC(=O)CNC(=O)[C@H](CC(C)C)NC(=O)[C@@H](N)CC(C)C)C(=O)NCC(=O)N[C@@H](CCCCN)C(=O)N[C@@H](CCC(=O)O)C(=O)N[C@@H](Cc1ccccc1)C(=O)N[C@@H](CCCCN)C(=O)N[C@@H](CCCNC(=N)N)C(=O)N[C@H](C(=O)N[C@H](C(=O)N[C@@H](CCC(N)=O)C(=O)N[C@@H](CCCNC(=N)N)C(=O)N[C@H](C(=O)N[C@@H](CCCCN)C(=O)N[C@@H](CC(=O)O)C(=O)N[C@@H](Cc1ccccc1)C(=O)N[C@@H](CC(C)C)C(=O)N[C@@H](CCCNC(=N)N)C(=O)N[C@@H](CC(N)=O)C(=O)N[C@@H](CC(C)C)C(=O)N[C@H](C(=O)N1CCC[C@H]1C(=O)N[C@@H](CCCNC(=N)N)C(=O)N[C@H](C(=O)N[C@@H](CCC(=O)O)C(=O)N[C@@H](CO)C(=O)O)[C@@H](C)O)C(C)C)[C@@H](C)CC)C(C)C)[C@@H](C)CC` [LL-37], the “Interaction with PS (lipid overlay)” value in data set [1] (chemoluminescence) is given as “strong interactions”. For the same molecule, in data set [1], the “Binding to PC (lipid overlay)” value is “does not bind”, the “Interaction with CL (lipid overlay)” value is recorded as “strong interactions”, the “Interaction with PE (lipid overlay)” value was “strong interactions” and the “Interaction with PG (lipid overlay)” value is given as “strong interactions”. Moreover, in data set [1], the “Interaction with PI (lipid overlay)” value is recorded as “do not interact”, the “Interaction with PI-4 (lipid overlay)” value is on record as “do not interact”, the “Interaction with PI-4,5 (lipid overlay)” value is “do not interact” and the “Interaction with phosphatidic-acid (lipid overlay)” value is on record as “strong interactions”. In addition, in data set [1], the “Interaction with sulfatide (lipid overlay)” value is “strong interaction” and the “Recognition of PI-3, 4, 5 (lipid overlay)” value is recorded as “recognized”. For the same molecule, the “Oligomeric state in SEC, dominating species” value in data set [2] (0.16 mM (0.7 mg/ml) peptide, no detergent, Superdex75 10/300 GL, 100 mM NaCl, 10 mM NaHCO3, 5 mM sodium phosphate pH 6.8, room temperature, 215 nm) is recorded as “monomeric”. Moreover, in data set [2] (0.16 mM peptide with 0.2% LDAO, 0.2% DPC or 0.05% DDM, 30 min pre-incubation, buffer pH 6.8, room temperature), the “Oligomeric state in SEC in the presence of detergents” value is “tetramers or hexamers”. Besides, the “Oligomeric state in SEC (retention time range)” value in data set [2] (0.83 mM (3.7 mg/ml) peptide, no detergent, Superdex75 10/300 GL, buffer pH 6.8, room temperature, 215 nm) was “tetramer or hexamer”. Further, the “Molecular weight in SEC in the presence of detergents” value in data set [2] (in the presence of DDM, DPC and LDAO) is reported as “around 30 kD”. Further, the “Molecular weight by AUC in DDM” value in data set [3] is ~ 28 kD.
Regarding LLGDFFRKSKEKIGKEFKRIVQRIKDF [LL-28], in the data set on E. coli, the “MIC against E. coli in the presence of detergent” value was found to be 6 µg/mL.
As for “gold-labelled LL-37: S37C mutant of LL-37 labeled at the C-terminus with 1.4 nm nanogold particles (LLGDFFRKSKEKIGKEFKRIVQRIKDFLRNLVPRTEC; also: labeled at the C-terminus with 1.4 nm nanogold particles, attachment not given here; UniProt P49913 134-170, looked up, variant S37C)”, the “Effect on E. coli membranes (cryo-EM)” value with E. coli K12 cells is on record as “clear perforation of the outer but not of the inner membrane”. The “Membrane perturbation of lipid vesicles (cryo-EM)” value in data set [4] is given as “no significant membrane perturbation”.

Values taken from article PMC5684418, “Structural remodeling and oligomerization of human cathelicidin on membranes suggest fibril-like structures as active species” (Scientific Reports, 2017).
